From patent publication US20190234926A1, “METHOD OF PREDICTING FLAVOR PERFORMANCE” (McCormick & Company, Incorporated, priority 2016, published 2019)

Experiment: Polarity measured as dielectric constant with a dielectric constant meter
Assay type: physicochemical
Excerpt: Polar solvents such as water heat up in a microwave much faster than non-polar oils. Flavors heat up somewhere in between depending on their polarity. Dipolar moment of molecules of various liquids is different and can be a measure of polarity of liquids. The dipolar moment is responsible for interaction of molecules in a liquid with the electromagnetic field of a microwave oven. One measure of dipolar moment is dielectric constant. Thus, dielectric constant is a sound measure of flavor polarity and can predict flavor properties and flavor-matrix interaction whether during processing or in final target applications. An example of one commercially available dielectric constant meter useful with the method described herein is a model BI-870 from Brookhaven Instruments. It can measure dielectric constant not only at 20° C. but in a broad temperature range.
In support of development of flavors, encapsulation technologies, and applications, dielectric constant of key solvents used in flavor formulation (Table 1) were measured and a variety of target flavors (Table 2). […] Dielectric constants of binary blends of components fall in the range between the dielectric constants of individual components.

| Dielectric constant (solvents, at about 20° C.) | Dielectric constant (flavor components and compounded flavors incl. listed solvent, at about 20° C.) | SMILES | Dielectric constant (at 20° C., general statement) |
| --- | --- | --- | --- |
| 28.7 | – | CC(O)CO (stereo not drawn) [Propylene glycol] | – |
| 28.3 | – | CCO [Ethanol (95%), Ethanol] | – |
| 13.8 | – | OCc1ccccc1 [Benzyl alcohol] | – |

Continued, molecule first:

| SMILES | Dielectric constant (solvents, at about 20° C.) | Dielectric constant (flavor components and compounded flavors incl. listed solvent, at about 20° C.) | Dielectric constant (at 20° C., general statement) |
| --- | --- | --- | --- |
| O [Water deionized, Water] | 79.2 | – | about 80 |
| OCC(O)CO [Glycerin] | 46.1 | – | – |
| CC(=O)C(C)=O [Diacetyl] | – | 4.4 | – |
| CC(=O)OCC(COC(C)=O)OC(C)=O [Triacetin] | 7.0 | – | – |
| CC(C)O [Isopropanol] | 20.8 | – | – |
